# Reference: paper PMC6835155, “Lessons from LIMK1 enzymology and their impact on inhibitor design” (Biochemical Journal, 2019)
# Structures can show the parent of a compound that is named as a salt. Where two headings read alike, the source gives them in different places.
# Experiments:
# LIMK2KD = target: T1, LIMK2KD (Homo sapiens, UniProt P53671); assay: Differential (dynamic) scanning fluorimetry (DSF) assay, LIMK2KD; type: binding
# T1 construct: The cDNA coding for LIMK2 residues 330 to 632 was PCR amplified; His6 (N, cleaved yes); made in house; host or cells: baculovirus; Sf9 for virus, TriEx insect cells for expression
# LIMK1KD = target: T2, LIMK1KD (Homo sapiens, UniProt P53667); assay: Differential (dynamic) scanning fluorimetry (DSF) assay, LIMK1KD; type: binding; conditions: 2 µM LIMK1KD, compound 10 µM, single shot; for ΔTm at 10 µM: read-out: TM Shift LIMK1 (K)
# T2 construct: His6 (N, cleaved yes); made in house; host or cells: baculovirus; Sf9 for virus, TriEx insect cells for expression
# [1] = LIMK2KD, compound 10 µM, single shot, read-out: TM Shift LIMK2 (K)
# [2] = LIMK2KD, compound 10 µM, single shot
# T1 sequence (P53671 330-632): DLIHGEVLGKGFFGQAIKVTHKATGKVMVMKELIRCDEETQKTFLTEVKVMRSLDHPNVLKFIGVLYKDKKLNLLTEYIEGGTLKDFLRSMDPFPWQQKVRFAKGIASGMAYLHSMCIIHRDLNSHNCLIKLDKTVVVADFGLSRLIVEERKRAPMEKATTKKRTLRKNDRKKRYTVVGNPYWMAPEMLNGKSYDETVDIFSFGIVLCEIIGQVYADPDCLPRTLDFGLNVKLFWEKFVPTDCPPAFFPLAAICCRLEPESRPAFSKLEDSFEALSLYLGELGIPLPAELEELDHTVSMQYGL
# T2 sequence (P53667 330-637): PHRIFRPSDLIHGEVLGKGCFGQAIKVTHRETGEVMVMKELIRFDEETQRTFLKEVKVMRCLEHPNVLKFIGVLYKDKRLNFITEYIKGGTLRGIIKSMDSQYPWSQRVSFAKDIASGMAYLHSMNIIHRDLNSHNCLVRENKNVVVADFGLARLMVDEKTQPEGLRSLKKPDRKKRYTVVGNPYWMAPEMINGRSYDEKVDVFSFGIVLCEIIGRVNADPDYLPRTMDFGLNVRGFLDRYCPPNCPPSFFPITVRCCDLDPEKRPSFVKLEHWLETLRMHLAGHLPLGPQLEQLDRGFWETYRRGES
SMILES,ΔTm at 10 µM (LIMK2KD; [1]),ΔTm at 10 µM (LIMK1KD),TM Shift LIMK2 (K) (LIMK2KD; [2]),TM Shift LIMK1 (K) (LIMK1KD),further results
"Cn1cnc2c(F)c(Nc3ccc(Br)cc3F)c(C(=O)NOCCO)cc21 [MEK162 (ARRY-162, ARRY-438162)]",2.1 °C,0.4 °C,,,
O=C(NOCC(O)CO)c1cc(Br)c(F)c(F)c1Nc1ccc(I)cc1F (stereo not shown) [PD318088],,,2.8 K,0.6 K,
COc1cc(N2CCC(N3CCN(C)CC3)CC2)ccc1Nc1ncc(Cl)c(Nc2ccccc2P(C)(C)=O)n1 [AP26113],0.1 °C,3.4 °C,,,
COc1cc(O)c2c(c1)/C=C/C[C@H](O)[C@H](O)C(=O)/C=C\C[C@H](C)OC2=O [(5Z)-7-Oxozeaenol],,,0.7 K,2.8 K,
Cc1ccccc1-n1c(Cn2ncc3c(N)ncnc32)nc2cccc(C)c2c1=O [PIK-293],,,0.9 K,0.6 K,
CC(C)(C)NS(=O)(=O)c1cncc(-c2cc(F)c3nc(N)nn3c2)c1 [CZC24832],-0.1 °C,-0.4 °C,,,
"N#C/C(=C\c1ccc(O)c(O)c1)C(=O)NCc1ccccc1 [AG-490 (Tyrphostin B42), Tyrphostin B42]",,,0.9 K,0.7 K,
CNC(=O)c1c(F)cccc1Nc1nc(Nc2cc3c(cc2OC)CCN3C(=O)CN(C)C)nc2[nH]ccc12 [GSK1838705A],,,1.0 K,0.4 K,
C=CC(=O)Nc1ccc2ncnc(Nc3ccc(OCc4cccc(F)c4)c(Cl)c3)c2c1 [AST-1306],0.1 °C,0.4 °C,,,
CN(c1ncccc1CNc1nc(Nc2ccc3c(c2)CC(=O)N3)ncc1C(F)(F)F)S(C)(=O)=O [PF-562271],,,,-0.5 K,"TM Shift LIMK2 (K) (LIMK2KD; LIMK2KD, compound 10 µM, single shot, 10 µM): -0.7 K"
C[C@]12O[C@H](C[C@]1(O)CO)n1c3ccccc3c3c4c(c5c6ccccc6n2c5c31)CNC4=O [Lestaurtinib],,5 °C,,,"ΔTm at 10 µM (LIMK2KD; read-out: TM Shift LIMK2 (K), LIMK2KD, compound 10 µM, single shot): 2 °C"
COc1ncc(-c2ccc3nccc(-c4ccnnc4)c3c2)cc1NS(=O)(=O)c1ccc(F)cc1F [GSK2126458 (GSK458)],,,0.9 K,1.2 K,
"CO[C@H]1C[C@@H]2CC[C@@H](C)[C@@](O)(O2)C(=O)C(=O)N2CCCC[C@H]2C(=O)O[C@H]([C@H](C)C[C@@H]2CC[C@@H](OC(=O)C(C)(CO)CO)[C@H](OC)C2)CC(=O)[C@H](C)/C=C(\C)[C@@H](O)[C@@H](OC)C(=O)[C@H](C)C[C@H](C)/C=C/C=C/C=C/1C [Temsirolimus (CCI-779, NSC 683864), Temsirolimus]",0 °C,-0.7 °C,,,
O=C1NCCc2[nH]c(-c3ccncc3)cc21 [PHA-767491],,,0.4 K,1.2 K,
"NC(=O)c1cnc(N[C@@H]2CCCC[C@@H]2N)nc1Nc1cccc(-n2nccn2)c1 [PRT062607 (P505-15, BIIB057) HCl]",-1 °C,-0.6 °C,,,
Cc1cc(Nc2cc(N3CCN(C)CC3)nc(/C=C/c3ccccc3)n2)n[nH]1 [ENMD-2076],6 °C,4.6 °C,,,
O=C(NCc1cccc(O)c1)Nc1nc(-c2ccncc2)cs1 [RKI-1447],,,0.8 K,1.4 K,
CNC(=O)c1cc(Oc2ccc(NC(=O)Nc3ccc(Cl)c(C(F)(F)F)c3)cc2)ccn1 [Sorafenib],,,,-0.7 K,
O=c1c(O)c(-c2ccc(O)c(O)c2)oc2cc(O)cc(O)c12 [Quercetin],3.9 °C,,,,
Cc1ccc(Nc2nccc(N(C)c3ccc4c(C)n(C)nc4c3)n2)cc1S(N)(=O)=O [Pazopanib],6.2 °C,,,,
